How the values were obtained:
[1] = tested on: HPAF-II cells; experiment: Flow cytometry of TF-bearing extracellular vesicles from HPAF-II cells after UPR induction; type: cell-based; details: for increase in the generation of TF-bearing EVs: HPAF-II cells following UPR induction, flow cytometry
Excerpt: (§1) The unfolded protein response (UPR) is associated with malignant transformation in pancreatic cancer, but whether or not activation of the UPR is linked to cancer thrombosis has not previously been evaluated. To determine whether UPR signaling functions in the prothrombotic transformation of pancreatic cancer, pancreatic adenocarcinoma cells (HPAF-II cells) were exposed to three UPR inducers (tunicamycin, triptolide and thapsigargin) that act via independent mechanisms. […] Release of thrombogenic material was inhibited by siRNA-mediated knockdown of UPR components including IRE1α (80%±3% decrease) or PERK (60%±10% decrease). […] Apoptosis as detected by caspase-3 cleavage was not observed under these conditions.

[2] = tested on: HPAF-II cells; experiment: Thrombin generation by material released from HPAF-II cells after UPR induction; type: cell-based; details: for decrease in thrombin generation (release of thrombogenic material): HPAF-II cells, UPR induced, chemical inhibition or siRNA knockdown of UPR components; for increase in thrombin generation in pelleted material: pancreatic adenocarcinoma HPAF-II cells exposed to UPR inducers, supernatant pelleted material
Excerpt: as §1

## C[C@H]1CCC/C=C/[C@@H]2C[C@H](O)C[C@H]2[C@H](O)/C=C/C(=O)O1 [Brefeldin A]
[1]; HPAF-II cells, UPR induced
  inhibition of UPR-induced generation of TF-bearing EVs: inhibited

## Cn1cc(-c2ccc3c(c2)CCN3C(=O)Cc2cccc(C(F)(F)F)c2)c2c(N)ncnc21 [GSK2606414]
[2]
  decrease in thrombin generation (release of thrombogenic material): 80%±5%

## CN1CCN(C(=O)c2ccc(-c3ccc4c(C=O)c(O)ccc4c3)s2)CC1 [MKC-3946]
[2]
  decrease in thrombin generation (release of thrombogenic material): 70%±10%

## C/C=C(/C)C(=O)O[C@H]1C(C)=C2[C@H]([C@@H]1OC(=O)CCCCCCC)[C@@](C)(OC(C)=O)C[C@H](OC(=O)CCC)[C@@]1(O)[C@H]2OC(=O)[C@@]1(C)O [thapsigargin]
[2]
  increase in thrombin generation in pelleted material: 3 fold
[1]
  increase in the generation of TF-bearing EVs: 3 fold

## CC(C)[C@]12O[C@H]1[C@@H]1O[C@]13[C@]1(O[C@H]1C[C@H]1C4=C(CC[C@@]13C)C(=O)OC4)[C@@H]2O [triptolide]
[2]
  increase in thrombin generation in pelleted material: 3 fold
[1]
  increase in the generation of TF-bearing EVs: 3 fold

## tunicamycin
[2]
  increase in thrombin generation in pelleted material: 3 fold
[1]
  increase in the generation of TF-bearing EVs: 3 fold

From patent US20240133897A1, “COMPOSITIONS AND METHODS FOR IDENTIFYING AND MODULATING THROMBOTIC CONDITIONS IN A CANCER PATIENT” (Beth Israel Deaconess Medical Center, Inc., priority 2019, published 2024)
